The results in this text go back to US10481149B2.

The target in assay [1] is T1, BSEP (Mus musculus, UniProt Q9QY30).
T1 sequence (Q9QY30 1-1321): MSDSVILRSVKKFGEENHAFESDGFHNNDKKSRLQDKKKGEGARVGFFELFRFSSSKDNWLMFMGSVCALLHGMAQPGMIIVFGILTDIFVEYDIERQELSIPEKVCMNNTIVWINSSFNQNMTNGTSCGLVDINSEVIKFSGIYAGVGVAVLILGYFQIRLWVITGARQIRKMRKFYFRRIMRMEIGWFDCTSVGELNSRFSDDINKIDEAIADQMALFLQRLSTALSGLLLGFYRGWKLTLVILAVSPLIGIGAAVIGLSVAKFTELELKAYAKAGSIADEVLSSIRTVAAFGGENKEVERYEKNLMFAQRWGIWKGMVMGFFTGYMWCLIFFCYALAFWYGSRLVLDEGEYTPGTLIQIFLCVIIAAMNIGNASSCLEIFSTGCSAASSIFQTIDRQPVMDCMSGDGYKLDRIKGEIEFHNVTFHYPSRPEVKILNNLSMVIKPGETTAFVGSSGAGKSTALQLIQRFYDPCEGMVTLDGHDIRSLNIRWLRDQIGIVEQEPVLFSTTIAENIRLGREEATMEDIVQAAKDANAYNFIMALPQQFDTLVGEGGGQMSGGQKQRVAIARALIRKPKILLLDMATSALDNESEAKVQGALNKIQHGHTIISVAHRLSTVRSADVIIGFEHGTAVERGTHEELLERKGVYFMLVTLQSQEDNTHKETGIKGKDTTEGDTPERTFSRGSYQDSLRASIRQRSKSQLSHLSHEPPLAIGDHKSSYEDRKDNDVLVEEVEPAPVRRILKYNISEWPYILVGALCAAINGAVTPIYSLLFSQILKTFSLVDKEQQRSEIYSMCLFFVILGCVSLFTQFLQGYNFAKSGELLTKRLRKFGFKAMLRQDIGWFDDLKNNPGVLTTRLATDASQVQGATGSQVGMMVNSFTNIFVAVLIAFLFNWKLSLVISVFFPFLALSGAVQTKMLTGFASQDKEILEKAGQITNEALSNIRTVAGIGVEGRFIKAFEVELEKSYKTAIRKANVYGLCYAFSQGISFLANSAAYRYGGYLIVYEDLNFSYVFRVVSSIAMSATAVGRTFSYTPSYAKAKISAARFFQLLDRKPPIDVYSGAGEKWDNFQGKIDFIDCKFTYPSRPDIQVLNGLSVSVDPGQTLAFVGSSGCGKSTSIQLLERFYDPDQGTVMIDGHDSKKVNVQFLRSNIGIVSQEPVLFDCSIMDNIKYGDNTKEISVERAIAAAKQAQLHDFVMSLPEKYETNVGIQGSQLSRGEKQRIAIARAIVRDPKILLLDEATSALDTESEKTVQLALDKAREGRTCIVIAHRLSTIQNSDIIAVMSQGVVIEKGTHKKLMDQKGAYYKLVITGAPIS
Kind of assay: IC50 for inhibition of BSEP activity in mouse hepatocytes. Format: cell-based. The procedure:
(§1) Kinetic parameters were calculated using standard Michaelis-Menten kinetics. IC50 values were determined using Prism software (La Jolla, Calif.) or median-effect equation. [Chou et al., Theoretical basis, experimental design, and computerized simulation of synergism and antagonism in Drug Combination Studies. Pharmacological Reviews 58, 621, 2006]

The target of assay [2] is BSEP (Homo sapiens, UniProt O95342). Put plainly: IC50 for inhibition of BSEP activity in human hepatocytes. The class given is cell-based. The procedure: as §1
Chain of BSEP (Homo sapiens, UniProt O95342) (O95342 whole entry): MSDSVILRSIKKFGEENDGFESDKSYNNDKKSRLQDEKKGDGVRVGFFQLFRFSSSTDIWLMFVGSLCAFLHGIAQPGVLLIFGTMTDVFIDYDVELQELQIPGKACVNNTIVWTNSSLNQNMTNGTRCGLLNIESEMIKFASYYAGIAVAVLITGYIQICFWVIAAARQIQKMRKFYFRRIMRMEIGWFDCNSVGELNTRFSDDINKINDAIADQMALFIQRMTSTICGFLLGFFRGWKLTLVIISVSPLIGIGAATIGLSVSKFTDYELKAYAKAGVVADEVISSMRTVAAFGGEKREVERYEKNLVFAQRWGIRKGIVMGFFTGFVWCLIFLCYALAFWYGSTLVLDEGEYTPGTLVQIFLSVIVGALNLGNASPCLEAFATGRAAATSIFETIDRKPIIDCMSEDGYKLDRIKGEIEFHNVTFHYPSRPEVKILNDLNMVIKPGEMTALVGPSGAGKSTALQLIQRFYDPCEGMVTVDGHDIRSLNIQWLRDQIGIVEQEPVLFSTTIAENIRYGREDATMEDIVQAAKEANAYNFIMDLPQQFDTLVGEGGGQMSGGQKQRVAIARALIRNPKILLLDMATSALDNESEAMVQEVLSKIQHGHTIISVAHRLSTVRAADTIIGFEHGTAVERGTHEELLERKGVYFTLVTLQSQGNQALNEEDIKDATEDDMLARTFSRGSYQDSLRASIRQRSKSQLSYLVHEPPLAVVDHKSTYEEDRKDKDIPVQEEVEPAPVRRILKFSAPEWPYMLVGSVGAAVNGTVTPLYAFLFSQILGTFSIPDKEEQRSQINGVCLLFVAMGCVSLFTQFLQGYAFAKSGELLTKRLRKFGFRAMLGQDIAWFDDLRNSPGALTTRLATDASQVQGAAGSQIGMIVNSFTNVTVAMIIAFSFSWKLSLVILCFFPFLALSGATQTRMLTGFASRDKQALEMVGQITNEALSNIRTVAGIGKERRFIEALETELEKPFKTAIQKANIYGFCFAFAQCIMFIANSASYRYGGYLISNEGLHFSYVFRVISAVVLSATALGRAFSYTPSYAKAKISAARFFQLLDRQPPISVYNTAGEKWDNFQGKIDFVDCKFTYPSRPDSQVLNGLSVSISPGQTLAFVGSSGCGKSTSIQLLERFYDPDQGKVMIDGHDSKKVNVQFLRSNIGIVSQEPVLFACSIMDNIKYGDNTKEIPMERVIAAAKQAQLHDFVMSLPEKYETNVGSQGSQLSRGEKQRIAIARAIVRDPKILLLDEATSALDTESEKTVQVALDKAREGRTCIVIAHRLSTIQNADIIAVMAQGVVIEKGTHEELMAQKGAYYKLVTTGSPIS

The term IC50 denotes the midpoint of a concentration-inhibition curve.

Take `CC(=O)N1CCN(c2ccc(OCC3COC(Cn4ccnc4)(c4ccc(Cl)cc4Cl)O3)cc2)CC1` (stereo not shown) [Ketoconazole, ketoconazole]: the IC50 on BSEP [1] was greater than 10 µM.
Same read-out and setting: under `CO[C@H]1/C=C/O[C@@]2(C)Oc3c(C)c(O)c4c(O)c(c(/C=N/N5CCN(C)CC5)c(O)c4c3C2=O)NC(=O)/C(C)=C\C=C\[C@H](C)[C@H](O)[C@@H](C)[C@@H](O)[C@@H](C)[C@H](OC(C)=O)[C@@H]1C` [Rifampicin] stands greater than 10 µM.
In the case of `Cc1c(C)c2c(c(C)c1O)CCC(C)(COc1ccc(CC3SC(=O)NC3=O)cc1)O2` (stereo not shown) [Troglitazone, troglitazone], the IC50 on BSEP [1] was greater than 10 µM; at BSEP [2] it was 1 to 10 µM.
